For orientation: Kd means a measure of binding affinity in units of concentration. Low readings indicate higher affinity, high ones lower affinity.

SMILES strings stand for the structures.

Sequence of RAC-alpha serine/threonine-protein kinase [E49C,C296S,C310S,C344S] (P31749 whole entry E49C/C296S/C310S/C344S): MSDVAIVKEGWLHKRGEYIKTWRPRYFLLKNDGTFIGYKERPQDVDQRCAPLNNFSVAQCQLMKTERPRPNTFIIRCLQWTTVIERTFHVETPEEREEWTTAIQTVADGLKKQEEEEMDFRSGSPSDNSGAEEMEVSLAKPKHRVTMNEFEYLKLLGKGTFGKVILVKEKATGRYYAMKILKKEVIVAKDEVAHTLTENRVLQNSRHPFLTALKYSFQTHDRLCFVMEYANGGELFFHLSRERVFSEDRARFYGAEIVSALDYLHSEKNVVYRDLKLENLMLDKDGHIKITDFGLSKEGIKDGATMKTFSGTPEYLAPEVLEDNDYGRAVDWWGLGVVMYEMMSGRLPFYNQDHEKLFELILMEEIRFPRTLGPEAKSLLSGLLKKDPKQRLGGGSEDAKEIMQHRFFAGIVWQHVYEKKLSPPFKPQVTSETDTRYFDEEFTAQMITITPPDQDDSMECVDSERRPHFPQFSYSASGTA

This assay has as its target RAC-alpha serine/threonine-protein kinase [E49C,C296S,C310S,C344S] (Homo sapiens, UniProt P31749, C296S/C310S/C344S/E49C). As to the kind of experiment: iFLik Assay. The following applies: pH 7.4. On the procedure:
Labeled Akt1 was diluted to 200 nM in the measurement buffer consisting of 50 mMHEPES pH 7.4, 200 mM NaCl, and 0.01% Triton-X 100. Dilution series of candidate compounds were prepared in DMSO at 21× the final desired concentration. Compounds (0.5 μL) were then mixed with labeled Akt1 (10 μL) in triplicate and with measurement buffer alone (background fluorescence control) in quadruplicate at 12different concentrations. The final compound concentrations ranged from 0.8 nM to 500 μM and each well contained 5% v/v DMSO after mixing. Plates were then covered with an adhesive plastic foil and incubated for 2 h at RT prior to measurement of emission intensities at fluorophore-specific wavelengths
The molecule `O=c1[nH]ccc2nc(-c3ccc(CN4CCc5ccccc5C4)cc3)c(-c3ccccc3)cc12` [2-(4-((3,4-Dihydroisoquinolin-2(1H)-yl)methyl)phenyl)-3-phenyl-1,6-naphthyridin-5(6H)-one (7c)] came in with a Kd of 6 µM. That is a single-digit micromolar value. With `Cc1ccc(-n2cc(-c3ccccc3)c3c(NCc4ccccc4)ncnc32)cc1` [N-benzyl-7-(4-methylphenyl)-5-phenyl-7H-pyrrolo[2,3-d]pyrimidin-4-amine (8f)] the figure was 6 µM. With `O=c1[nH]ccc2nc(-c3ccc(CN4CCN(c5ncccn5)CC4)cc3)c(-c3ccccc3)cc12` [3-Phenyl-2-(4-((4-(pyrimidin-2-yl)piperazin-1-yl)methyl)phenyl)-1,6-naphthyridin-5(6H)-one (7f)] the figure was 1.1 µM; with `Cc1cccc(-n2cc(-c3ccccc3)c3c(NCc4cccs4)ncnc32)c1` [7-(3-methylphenyl)-5-phenyl-N-(thiophen-2-ylmethyl)-7H-pyrrolo[2,3-d]pyrimidin-4-amine (8e)], 99 µM; with `COc1ccc(N2CCN(Cc3ccc(-c4nc5cc[nH]c(=O)c5cc4-c4ccccc4)cc3)CC2)cc1` [2-(4-((4-(4-Methoxyphenyl)piperazin-1-yl)methyl)phenyl)-3-phenyl-1,6-naphthyridin-5(6H)-one (7e)], 7.2 µM. The figure for `O=c1[nH]ccc2nc(-c3ccc(CN4CCC(n5c(=O)[nH]c6ccccc65)CC4)cc3)c(-c3ccccc3)cc12` [2-(4-((4-(2-Oxo-2,3-dihydro-1H-benzo[d]imidazol-1-yl)piperidin-1-yl)methyl)phenyl)-3-phenyl-1,6-naphthyridin-5(6H)-one (7a)] is 0.41 µM; for `Cc1ccc(-n2cc(-c3ccccc3)c3c(NCc4cccs4)ncnc32)cc1` [7-(4-methylphenyl)-5-phenyl-N-(thiophen-2-ylmethyl)-7H-pyrrolo[2,3-d]pyrimidin-4-amine (8a)] it is 2.2 µM; for `O=C(C1CCCO1)N1CCN(Cc2ccc(-c3nc4cc[nH]c(=O)c4cc3-c3ccccc3)cc2)CC1` (centres undefined) [3-Phenyl-2-(4-((4-(tetrahydrofuran-2-carbonyl)piperazin-1-yl)methyl)phenyl)-1,6-naphthyridin-5(6H)-one (7g)] it is 8 µM. For the molecule `Cc1ccc(-n2cc(-c3ccccc3)c3c(NCc4cccs4)ncnc32)cc1Cl` [7-(3-chloro-4-methylphenyl)-5-phenyl-N-(thiophen-2-ylmethyl)-7H-pyrrolo[2,3-d]pyrimidin-4-amine (8g)], binding was characterised by a dissociation constant (Kd) of 264 µM. Regarding `COC(=O)C1CCN(Cc2ccc(-c3nc4cc[nH]c(=O)c4cc3-c3ccccc3)cc2)CC1` [Methyl 1-(4-(5-oxo-3-phenyl-5,6-dihydro-1,6-naphthyridin-2-yl)benzyl)piperidine-4-carboxylate (7d)], the Kd is 0.9 µM. `O=c1[nH]ccc2nc(-c3ccc(CN4CCC(n5c(=O)[nH]c6cc(Cl)ccc65)CC4)cc3)c(-c3ccccc3)cc12` [2-(4-((4-(5-Chloro-2-oxo-2,3-dihydro-1H-benzo[d]imidazol-1-yl)piperidin-1-yl)methyl)phenyl)-3-phenyl-1,6-naphthyridin-5(6H)-one (7b)] came in with a Kd of 0.15 µM. In turn, `Cc1ccc(-n2cc(-c3ccccc3)c3c(NCc4cccnc4)ncnc32)cc1` [7-(4-methylphenyl)-5-phenyl-N-(pyridin-3-ylmethyl)-7H-pyrrolo[2,3-d]pyrimidin-4-amine (8b)] gave a Kd of 7.8 µM. For the molecule `Fc1ccc(-n2cc(-c3ccccc3)c3c(NCc4ccccn4)ncnc32)cc1` [7-(4-fluorophenyl)-5-phenyl-N-(pyridin-2-ylmethyl)-7H-pyrrolo[2,3-d]pyrimidin-4-amine (8c)], the Kd amounted to 20 µM.

`c1ccc(-c2cn(-c3ccccc3)c3ncnc(NCc4cccs4)c23)cc1` [5,7-diphenyl-N-(thiophen-2-ylmethyl)-7H-pyrrolo[2,3-d]pyrimidin-4-amine (8d)] yielded a Kd of 2.2 µM.

Source of the values: BindingDB's records for doi:10.1021/cb500355c (2015).
